Read-outs that look alike come from different tables or passages of the source.

Here are results for eight molecules from publication PMC9964544, “Evidence of Insulin-Sensitizing and Mimetic Activity of the Sesquiterpene Quinone Avarone, a Protein Tyrosine Phosphatase 1B and Aldose Reductase Dual Targeting Agent from the Marine Sponge Dysidea avara” (Pharmaceutics, 2023).

Assay [1] relates to C2C12 cells. Kind of assay: Glucose uptake assay (2-NBDG, flow cytometry) in C2C12 cells. The format is cell-based. The following applies: 2 h 10 mM cytochalasin B. On the procedure: To evaluate the impact of avarone (2) on the insulin signaling pathway, C2C12 cells were plated on P35 dishes and grown until 70% confluence. Then, cells were washed with phosphate-buffered saline (PBS) and incubated for 24 h in the presence of a starvation medium (DMEM high glucose containing 2 mM glutamine, 100 U/mL of penicillin, and 100 μg/mL of streptomycin). After this time, cells were stimulated for 30 min with 10 nM insulin (Humulin R, Ely Lilly, Italy) with avarone (2) or the insulin-avarone combination. After this time, cells were washed with cold PBS and lysed using 100 µL of 1X Laemmli sample buffer solution (50 mM Tris-HCl pH 6.8, 2% SDS, 10% glycerol, 1% β-mercaptoethanol, 12.5 mM EDTA, 0.02% bromophenol blue). Cell proteins were withdrawn, transferred in an Eppendorf tube and boiled for 5 min. All samples were stored at −20 °C before the analysis. Analysis of samples was carried out using SDS-PAGE; after electrophoresis, proteins were transferred on a PVDF membrane by Western blot. Phosphorylation levels of the insulin receptor β chain and of the kinase Akt were evaluated using specific antibodies: IR β subunit, clone CT-3 (MABS65) was from Santa Cruz Biotechnology (Santa Cruz, CA, USA); pIR β subunit, Y1162/1163 (sc-25103-R) was from Merck-Millipore (Burlington, MA, USA). Akt (9272S) and p-Akt (9271S) antibodies were from Cell Signaling Technology (Danvers, MA, USA). Finally, β-actin and clone C-4 (sc-47778) were from Merck-Millipore (Burlington, MA, USA). Anti-rabbit and anti-mouse secondary antibodies were from Santa Cruz Biotechnology (Santa Cruz, CA, USA). Detection was performed using Clarity western ECL substrates (BioRad Laboratories, Inc. 1000 Alfred Nobel DriveHercules, CA, USA). Quantitation of the images obtained was carried out using iBright Analysis Software (Thermo Fisher Scientific 168 Third Avenue Waltham, MA, USA, 02451). Glucose uptake was evaluated as previously described. […] Intrinsic and 2-NBDG-derived cell fluorescences were determined using a flow cytometer (FACSCanto II, BD Biosciences, San Jose, CA, USA). […] Quantitative analysis was carried out using FlowJo software (FlowJo^TM v10. BD FlowJo™ Software for Windows Version 10. Ashland, OR: Becton, Dickinson and Company; 2021).
Figure 8 Glucose uptake assay. […] After, cells were washed with PBS, detached using trypsin, collected by centrifugation, and analyzed using a flow cytometer (FACSCanto II, BD Biosciences). […] For each experiment, 10,000 events were analyzed. […] (B) Quantitation of fluorescence levels. […]
Figure 9 Impact of cytochalasin B on avarone-induced glucose uptake. […] After, cells were washed and incubated for 3 h with 40 µM 2-NBDG and then analyzed using a flow cytometer (FACSCanto II, BD Biosciences). For each experiment, 10,000 events were analyzed. […]

Assay [2] deals with T1, human recombinant AKR1B1 (Homo sapiens, UniProt P15121).
T1 construct: made in house
On the set-up: method as in Demir et al. [17]. The following applies: ref Demir et al. [17]; cited from earlier work.

Assay [3] concerns the target T2, Human PTP1B (Homo sapiens, UniProt P18031).
T2 sequence (P18031 1-302): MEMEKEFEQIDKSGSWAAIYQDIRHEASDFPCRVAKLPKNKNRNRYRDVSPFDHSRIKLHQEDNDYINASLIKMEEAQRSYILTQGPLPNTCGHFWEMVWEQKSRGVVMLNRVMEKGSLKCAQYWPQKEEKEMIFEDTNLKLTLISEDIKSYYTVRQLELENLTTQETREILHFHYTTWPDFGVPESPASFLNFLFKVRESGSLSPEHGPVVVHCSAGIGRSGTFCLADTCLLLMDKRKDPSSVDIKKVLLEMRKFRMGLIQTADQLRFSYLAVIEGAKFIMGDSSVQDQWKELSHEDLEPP
On the set-up: polyHis (N); made in house. The following applies: cited from earlier work; for IC50: IC50 ± SD.

The target in assay [4] is T1, human recombinant AKR1B1. Nature of the assay: AKR1B1 inhibition assay with L-idose as substrate, NADPH oxidation (IC50). The following applies: 10 mU AKR1B1, 1.6 mM L-idose, 37 °C; IC50 ± SD. The assay is classed as biochemical. On the procedure:
(§1) The purification of human recombinant AKR1B1 was performed as previously described. […] The purified enzyme, stored at −80 °C in 10 mM sodium phosphate buffer pH 7.0 containing 2 mM DTT and 30% (w/v) glycerol, was extensively dialyzed against 10 mM sodium phosphate buffer pH 7.0 before use. […] The fractions containing PTP1B were collected, concentrated, and injected into a Superdex G75 column equilibrated with Tris-HCl buffer pH 8.0 containing 150 mM NaCl and 1 mM mercaptoethanol. The fractions containing PTP1B were collected and concentrated; the purity of preparation was evaluated using SDS-PAGE. The PTP1B preparation was split into fractions of 0.5 mL volume; each fraction was stored at −80 °C.
(§2) The standard assay mixture (final volume 0.7 mL) was contained in 0.25 M sodium phosphate buffer pH 6.8, 0.18 mM NADPH, 0.4 M ammonium sulfate, 0.5 mM EDTA, and 4.7 mM GAL. One unit of enzyme activity is the amount of enzyme that catalyzes the conversion of 1 µmol of substrate/min in the above assay conditions. The same assay conditions were adopted in the inhibition studies using L-idose as the substrate at the indicated concentrations. PTP1B activity was determined using p-nitrophenylphosphate (pNPP) as the synthetic substrate. The pNPP was dissolved in 0.075 M ββ-dimethylglutarate buffer, pH 7.0, containing 1 mM dithiothreitol. Each assay was carried out at 37 °C in 1 mL of assay buffer. The reactions were started by diluting an aliquot of PTP1B preparation in the assay buffer; after 30 min, the reactions were stopped by adding 2 mL of 0.2 M KOH solution. The amount of p-nitrophenol released was determined spectrophotometrically, reading the absorbance of solutions at 400 nm (ε400nm = 18 mM^−^1cm^−^1).

Assay [5] concerns the target T2, Human PTP1B. Kind of assay: PTP1B inhibition assay with pNPP as substrate (IC50). The assay is classed as biochemical. On the set-up: polyHis (N); made in house. The following applies: 2.5 mM pNPP, 37 °C; IC50 ± SD. The protocol:
as §1, §2

Assay [6] has as its system C2C12 cells. Nature of the assay: Seahorse XFe96 Mito Stress Test in C2C12 cells. The following applies: affecting maximal respiration and ATP production-linked oxygen consumption. The assay is classed as cell-based. The protocol: C2C12 cells (3 × 10^4 cells/well) were placed in XFe96 cell culture plates. After 24 h of incubation at 37 °C, cell growth medium was substituted with an XF base medium supplemented with 2 mM glutamine, 1 mM sodium pyruvate, and 10 mM glucose, pH 7.4. The plate was then transferred in a non-CO2 incubator for 1 h at 37 °C to pre-equilibrate the cells before analysis. An XF Mito Stress Test was performed to assay the cells’ ability to exploit mitochondrial oxidative metabolism, according to the manufacturer’s instructions. The oxygen consumption rate (OCR) was evaluated after the injection of a sequence of compounds that interfere with the electron transport chain: oligomycin (1 μM), carbonyl cyanide-4 (trifluoromethoxy) phenylhydrazone (FCCP) (1 μM), and Rotenone/Antimycin A (0.5 μM). All data were normalized on the protein content of each well.
Figure 10 Results of Mito Stress Test assay. (A) C2C12 cells were subjected to Seahorse XFe96-Mito Stress Test analysis to evaluate oxygen consumption rate (OCR) in real time. OCR values were normalized on protein content. (B) Basal respiration, ATP-linked OCR, spare capacity, maximal respiration, and proton leak were calculated using data obtained from OCR plot after the administration of the adenosine triphosphate ATP synthase inhibitor oligomycin, the proton uncoupler carbonylcyanide p-trifluoromethoxyphenylhydrazone (FCCP), and the combination of the respiratory complex I inhibitor rotenone and the respiratory complex III inhibitor antimycin A. Each point reported in the OCR plot represents the medium value ± SEM obtained from independent replicates (n = 3 or 4). One-way ANOVA with Dunnett’s correction was used to assess differences in experimental features by using Prism 8 software (GraphPad). Statistical significance is annotated as follows: * p ≤ 0.01, ** p ≤ 0.001, *** p ≤ 0.0001, (t-test); ns, not significant; FC, fold change.

The test system of a further assay is 3T3-L1 cells. On the set-up: method as in PMID 19262557, PMID 19091557. The following applies: ref [24],[27]; cited from earlier work.

As to `C=C1[C@@H](C)[C@H]2[C@H](Cc3ccccc3)NC(=O)[C@]23OC(=O)/C=C/[C@H](O)CCC[C@@H](C)C/C=C/[C@H]3[C@@H]1O` [Cytochalasin B, cytochalasin B, reference compound], in the assay with C2C12 cells [1] (then 10 nM insulin 30 min), the “effect of preincubation on insulin-stimulated glucose uptake” value is reported as “strongly affects insulin-stimulated glucose uptake”. In the assay on C2C12 cells [1] (then 25 µM avarone 30 min), the “effect of preincubation on avarone-mediated glucose uptake” value is on record as “abolishes the avarone-mediated glucose uptake”.
Regarding `O=C1C=CC(=O)C=C1` [p-benzoquinone], the IC50 on human recombinant AKR1B1 [2] is 1930 nM; on Human PTP1B [3] (ref Zhang et al. [24]), 38.9 ± 5.2 µM.
For `CNC1=CC(=O)C=C(C[C@]2(C)[C@@H](C)CC[C@]3(C)C(C)=CCC[C@@H]23)C1=O` [3-methylaminoavarone (3), 3-(methylamino)avarone], the concentration for half-maximal inhibition (IC50) at human recombinant AKR1B1 [4] was 73 ± 15 µM; against Human PTP1B [5], 15.2 ± 2.1 µM.
Take “21-dehydroxybolinaquinone [21-dehydroxybolinaquinone (6)]”: at Human PTP1B [3] (ref Li et al. [27]), the IC50 was 39.5 µM.
For the molecule `CC1=CCC[C@H]2[C@](C)(Cc3cc(O)ccc3O)[C@@H](C)CC[C@]12C` [avarol (1), avarol], the IC50 is 0.52 ± 0.19 µM at human recombinant AKR1B1 [4] and 42.2 ± 18 µM against Human PTP1B [5].
For the molecule `CNC1=CC(=O)C(C[C@]2(C)[C@@H](C)CC[C@]3(C)C(C)=CCC[C@@H]23)=CC1=O` [4-methylaminoavarone (4), 4-(methylamino)avarone], the IC50 came to 62 ± 8 µM on human recombinant AKR1B1 [4] and 21.6 ± 1 µM against Human PTP1B [5].
In the case of `N#C/C(=C\c1cn(-c2ccccc2)c2ccccc12)C(=O)O` [UK5099, reference compound], the “mitochondrial respiration (OCR)” value in the assay on C2C12 cells [6] is “significant reduction in mitochondrial respiration”.
Consider dysidine [dysidine (5)], for which, at Human PTP1B [3] (ref Li et al. [27]), the IC50 is 6.7 ± 0.1 µM. Besides, at Human PTP1B [3] (ref [24],[27]), the “selectivity over other PTPs (TC-PTP and CD45)” value is listed as “moderate selectivity”; the “type of PTP1B inhibition” value is given as “reversible slow-binding PTP1B inhibitor”. Further, in the assay with 3T3-L1 cells, the “glucose uptake in 3T3-L1 cells” value is given as “increase glucose uptake”.
